Assays:
[1] = system: HeLa cells; experiment: Evaluation of phototoxicity: WST-8 cell viability after light exposure (16 J/cm^2, halogen lamp, 500 nm cut-off filter); assay type: cell-based; conditions: light 16 J/cm^2
Description: HeLa cells were plated in a 96-well plate to give a concentration of 5×10^3 cells/well (medium volume: 100 μL), and the plate was incubated at 37° C. in 5% CO2 atmosphere for 24 hours. To each well was added 100 μL of a drug solution containing 2% dimethylsulfoxide to give a certain concentration. The plate was further incubated at 37° C. in 5% CO2 atmosphere for 24 hours. Then, the medium was discarded and the cells were washed twice with phosphate buffered saline (100 μL). To each well was added 100 μL of Dulbecco's modified Eagle's medium (DMEM) containing 10% fetal calf serum (FCS). The cells were then exposed to light (16 J/cm^2) from a 100 W halogen lamp equipped with a 500 nm cut-off filter and a water jacket. After that, the plate was further incubated at 37° C. in 5% CO2 for 24 hours. And the plate was subjected to WST-8 assay and cell viability rates were calculated as relative values to those obtained in the absence of drugs. The average values of the result from 6 replicate experiments for each drug were calculated.
The light dose was adjusted by controlling the irradiation time by using a power meter.
WST assay is one of the method to determine the activity of dehydrogenase of cells, in which tetrazolium salt (WST-8) is reduced dependently on the number of viable cells. The amount of the reduction was determined by absorption spectroscopy to provide the relative amount of viable cells.
Phototoxicity were determined for the chlorin derivatives or porphyrin derivatives which were prepared in the above Example and Comparative Example and obtained as production intermediates, and the compound from Reference Example at a drug concentration of 0.5 μM according to the above evaluation method.
For the compounds No. 6 to 9 and 14 to 16 shown in Table 1, phototoxicity was determined at a drug concentration of 0.09 μM according to the above evaluation method.

[2] = system: some cells; conditions: non patent reference 2; cited from earlier work
[3] = system: HeLa cells; conditions: non-patent reference 1; cited from earlier work
[4] = drug concentration 0.5 μM, FIG. 3
[5] = drug concentration 0.09 μM, FIG. 4

Row | Molecule | phototoxicity of acetyl-protected compound compared with No. 6, 7, 8, 9 respectively [1, 4] | effect of sugar linkage on phototoxicity [1, 5] | phototoxicity compared with commercially available TPPS (No. 14) [1, 4] | phototoxicity compared with non-glycoconjugated compound (No. 1, 2, 3, 4 respectively) [1, 4] | also measured
1 | CC(=O)OCC1OC(Sc2c(F)c(F)c(-c3c4nc(c(-c5c(F)c(F)c(SC6OC(COC(C)=O)C(OC(C)=O)C(OC(C)=O)C6OC(C)=O)c(F)c5F)c5ccc([n-]5)c(-c5c(F)c(F)c(SC6OC(COC(C)=O)C(OC(C)=O)C(OC(C)=O)C6OC(C)=O)c(F)c5F)c5nc(c(-c6c(F)c(F)c(SC7OC(COC(C)=O)C(OC(C)=O)C(OC(C)=O)C7OC(C)=O)c(F)c6F)c6ccc3[n-]6)C=C5)C=C4)c(F)c2F)C(OC(C)=O)C(OC(C)=O)C1OC(C)=O.[Pd+2] [compound 11, {5,10,15,20-tetrakis[4-(2,3,4,6-tetra-O-acetyl-β-D-glucopyranosylthio)-2,3,5,6-tetrafluorophenyl]porphyrinato}palladium (II), reference compound] | phototoxicity was disappeared | – | – | – | –
2 | CN1CC2c3nc(c(-c4c(F)c(F)c(SC5OC(CO)C(O)C(O)C5O)c(F)c4F)c4ccc([n-]4)c(-c4c(F)c(F)c(SC5OC(CO)C(O)C(O)C5O)c(F)c4F)c4nc(c(-c5c(F)c(F)c(SC6OC(CO)C(O)C(O)C6O)c(F)c5F)c5ccc([n-]5)c3-c3c(F)c(F)c(SC5OC(CO)C(O)C(O)C5O)c(F)c3F)C=C4)C2C1.[Pd+2] [compound 9, {5,10,15,20-tetrakis[4-(β-D-glucopyranosylthio)-2,3,5,6-tetrafluorophenyl]-2,3-[methano(N-methyl)iminomethano]chlorinato}palladium (II)] | – | distinguished improvement of phototoxicity | higher phototoxicity | higher phototoxicity | phototoxicity compared with O-glycosylated chlorin derivative No. 15 [1, 5]: higher phototoxicity; phototoxicity compared with No. 6, 7 and No. 15 ([1]; drug concentration 0.5 μM): no difference in phototoxicity; phototoxicity compared with O-glycosylated chlorin derivative No. 15 ([1]; drug concentration 0.5 μM): not any differences in phototoxicity
3 | CC(=O)OCC1OC(Sc2c(F)c(F)c(-c3c4nc(c(-c5c(F)c(F)c(SC6OC(COC(C)=O)C(OC(C)=O)C(OC(C)=O)C6OC(C)=O)c(F)c5F)c5ccc([n-]5)c(-c5c(F)c(F)c(SC6OC(COC(C)=O)C(OC(C)=O)C(OC(C)=O)C6OC(C)=O)c(F)c5F)c5nc(c(-c6c(F)c(F)c(SC7OC(COC(C)=O)C(OC(C)=O)C(OC(C)=O)C7OC(C)=O)c(F)c6F)c6ccc3[n-]6)C3CN(C)CC53)C=C4)c(F)c2F)C(OC(C)=O)C(OC(C)=O)C1OC(C)=O.[Pd+2] [compound 13, {5,10,15,20-tetrakis[4-(2,3,4,6-tetra-O-acetyl-β-D-glucopyranosylthio)-2,3,5,6-tetrafluorophenyl]-2,3-[methano(N-methyl)iminomethano]chlorinato}palladium (II)] | phototoxicity was disappeared | – | – | – | –
4 | OCC1OC(Sc2c(F)c(F)c(-c3c4nc(c(-c5c(F)c(F)c(SC6OC(CO)C(O)C(O)C6O)c(F)c5F)c5ccc([n-]5)c(-c5c(F)c(F)c(SC6OC(CO)C(O)C(O)C6O)c(F)c5F)c5nc(c(-c6c(F)c(F)c(SC7OC(CO)C(O)C(O)C7O)c(F)c6F)c6ccc3[n-]6)C=C5)C=C4)c(F)c2F)C(O)C(O)C1O.[Pd+2] [compound 7, {5,10,15,20-tetrakis[4-(β-D-glucopyranosylthio)-2,3,5,6-tetrafluorophenyl]porphyrinato}palladium (II), reference compound] | – | did not result in any improvement effect of phototoxicity | higher phototoxicity | higher phototoxicity | –
5 | CN1CC2c3nc(c(-c4c(F)c(F)c(S[C@@H]5O[C@H](CO)[C@H](O)[C@H](O)[C@H]5O)c(F)c4F)c4ccc([nH]4)c(-c4c(F)c(F)c(S[C@@H]5O[C@H](CO)[C@H](O)[C@H](O)[C@H]5O)c(F)c4F)c4nc(c(-c5c(F)c(F)c(S[C@@H]6O[C@H](CO)[C@H](O)[C@H](O)[C@H]6O)c(F)c5F)c5ccc([nH]5)c3-c3c(F)c(F)c(S[C@@H]5O[C@H](CO)[C@H](O)[C@H](O)[C@H]5O)c(F)c3F)C=C4)C2C1 (stereo partly drawn) [compound 16, 5,10,15,20-tetrakis[4-(β-D-galactopyranosylthio)-2,3,5,6-tetrafluorophenyl]-2,3-[methano(N-methyl)iminomethano]chlorin] | – | – | higher phototoxicity | – | –
6 | OC[C@H]1OC(Sc2c(F)c(F)c(-c3c4nc(c(-c5c(F)c(F)c(SC6O[C@H](CO)[C@@H](O)[C@H](O)[C@H]6O)c(F)c5F)c5ccc([nH]5)c(-c5c(F)c(F)c(SC6O[C@H](CO)[C@@H](O)[C@H](O)[C@H]6O)c(F)c5F)c5nc(c(-c6c(F)c(F)c(SC7O[C@H](CO)[C@@H](O)[C@H](O)[C@H]7O)c(F)c6F)c6ccc3[nH]6)C=C5)C=C4)c(F)c2F)[C@H](O)[C@@H](O)[C@@H]1O (some centres unmarked) [5,10,15,20-tetrakis(4,1′-thio-glucosyl-2,3,5,6-tetrafluorophenyl)porphyrin] | – | – | – | – | cell death with irradiation of light [2]: cell death can be observed with irradiation of light
7 | CN1C[C@@H]2c3nc(c(-c4c(F)c(F)c(S[C@@H]5O[C@H](CO)[C@@H](O)[C@H](O)[C@H]5O)c(F)c4F)c4ccc([nH]4)c(-c4c(F)c(F)c(S[C@@H]5O[C@H](CO)[C@@H](O)[C@H](O)[C@H]5O)c(F)c4F)c4nc(c(-c5c(F)c(F)c(S[C@@H]6O[C@H](CO)[C@@H](O)[C@H](O)[C@H]6O)c(F)c5F)c5ccc([nH]5)c3-c3c(F)c(F)c(S[C@@H]5O[C@H](CO)[C@@H](O)[C@H](O)[C@H]5O)c(F)c3F)C=C4)[C@@H]2C1 [compound 8, 5,10,15,20-tetrakis[4-(β-D-glucopyranosylthio)-2,3,5,6-tetrafluorophenyl]-2,3-[methano(N-methyl)iminomethano]chlorin] | – | distinguished improvement of phototoxicity | higher phototoxicity | higher phototoxicity | phototoxicity compared with O-glycosylated chlorin derivative No. 15 [1, 5]: higher phototoxicity; phototoxicity compared with galactose-linked derivative No. 16 ([1]; drug concentration 0.09 μM, FIG. 5): higher phototoxicity; phototoxicity compared with No. 6, 7 and No. 15 ([1]; drug concentration 0.5 μM): no difference in phototoxicity; phototoxicity compared with O-glycosylated chlorin derivative No. 15 ([1]; drug concentration 0.5 μM): not any differences in phototoxicity
8 | CN1CC2c3nc(c(-c4c(F)c(F)c(F)c(F)c4F)c4ccc([n-]4)c(-c4c(F)c(F)c(F)c(F)c4F)c4nc(c(-c5c(F)c(F)c(F)c(F)c5F)c5ccc([n-]5)c3-c3c(F)c(F)c(F)c(F)c3F)C=C4)C2C1.[Pd+2] (centres unmarked) [compound 4, {5,10,15,20-tetrakis(pentafluorophenyl)-2,3-[methano(N-methyl)iminomethano]chlorinato}palladium] | – | – | – | – | phototoxicity of metal complex compared with compound No. 3 [1, 4]: phototoxicity increased
9 | OC[C@H]1O[C@@H](Sc2c(F)c(F)c(-c3c4nc(c(-c5c(F)c(F)c(S[C@@H]6O[C@H](CO)[C@@H](O)[C@H](O)[C@H]6O)c(F)c5F)c5ccc([nH]5)c(-c5c(F)c(F)c(S[C@@H]6O[C@H](CO)[C@@H](O)[C@H](O)[C@H]6O)c(F)c5F)c5nc(c(-c6c(F)c(F)c(S[C@@H]7O[C@H](CO)[C@@H](O)[C@H](O)[C@H]7O)c(F)c6F)c6ccc3[nH]6)C=C5)C=C4)c(F)c2F)[C@H](O)[C@@H](O)[C@@H]1O [compound 6, 5,10,15,20-tetrakis[4-(β-D-glucopyranosylthio)-2,3,5,6-tetrafluorophenyl]porphyrin, reference compound] | – | did not result in any improvement effect of phototoxicity | higher phototoxicity | higher phototoxicity | –
10 | 5,10,15,20-tetrakis[4-(2,3,4,6-tetra-O-acetyl-β-D-glucopyranosylthio)-2,3,5,6-tetrafluorophenyl]-2,3-[methano(N-methyl)iminomethano]chlorin [compound 12] | phototoxicity was disappeared | – | – | – | –
11 | 5,10,15,20-tetrakis[3-(β-D-glucopyranosyloxy)phenyl]chlorin [compound 15] | – | – | higher phototoxicity | – | cytotoxicity by irradiation with light [3]: show cytotoxicity by irradiation with light; cytotoxicity in the dark [3]: no cytotoxicity is found in the dark
12 | CC(=O)OC[C@H]1O[C@@H](Sc2c(F)c(F)c(-c3c4nc(c(-c5c(F)c(F)c(S[C@@H]6O[C@H](COC(C)=O)[C@@H](OC(C)=O)[C@H](OC(C)=O)[C@H]6OC(C)=O)c(F)c5F)c5ccc([nH]5)c(-c5c(F)c(F)c(S[C@@H]6O[C@H](COC(C)=O)[C@@H](OC(C)=O)[C@H](OC(C)=O)[C@H]6OC(C)=O)c(F)c5F)c5nc(c(-c6c(F)c(F)c(S[C@@H]7O[C@H](COC(C)=O)[C@@H](OC(C)=O)[C@H](OC(C)=O)[C@H]7OC(C)=O)c(F)c6F)c6ccc3[nH]6)C=C5)C=C4)c(F)c2F)[C@H](OC(C)=O)[C@@H](OC(C)=O)[C@@H]1OC(C)=O [compound 10, 5,10,15,20-tetrakis(4-(2,3,4,6-tetra-O-acetyl-β-D-glucopyranosylthio)-2,3,5,6-tetrafluorophenyl)porphyrin, reference compound] | phototoxicity was disappeared | – | – | – | –

From patent publication US20090318370A1, “NOVEL GLYCOCONJUGATED CHLORIN DERIVATIVES AND METHOD OF PRODUCING THE SAME” (REI Medical Co., Ltd., priority 2007, published 2009)
